Reference: US7790771B1, “Use of tosylchloramide(s) for treating disease of the skin, mucous membrane, organs and tissues” (Engelhard Arzneimittel GmbH & Co., priority 1999, dated 2010)

Experiment: Treatments of Example 5 repeated with corticoid-free bases containing only chloramine T
Type: in vivo
Conditions: powder added to the bath water
Method: Instead of adhesive salve Volon A with added chloramine T, a normal cooling salve was prepared—“unguentum leniens” which merely contained chloramine T-powder (2% by weight) as active ingredient, but no corticoid. The success described under Example 5 was the same.

Cc1ccc(S(=O)(=O)NCl)cc1.[Na] [chloramine T, tosylchloramide-sodium]
treatment results compared with Example 5: comparable results
